Laboratory results from ChEMBL document CHEMBL1201862, “PubChem BioAssay data set” (2004).
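In this assay, cells in 96-well plates receive the compound at five concentrations for 48 hours. Endpoints are linearly interpolated between the surrounding concentrations. GI50 marks 50% less growth.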 Activity calls are given as the source filed them. No stated cut-off is given here; in the data, active = GI50 up to about 1.1 µM and inactive = higher.

Tests used:
Test in all cases: NCI-60 cell line screen, 48 h
[1] = system: SK-MEL-28
[2] = system: 786-0
[3] = system: MDA-MB-435
[4] = system: SN12C
[5] = system: OVCAR-3
[6] = system: RXF 393
[7] = system: Malme-3M
[8] = system: HCT-15
[9] = system: LOX IMVI
[10] = system: UACC-62
[11] = system: SNB-75
[12] = system: TK-10
[13] = system: HOP-62
[14] = system: SF-268
[15] = system: HL-60
[16] = system: A498
[17] = system: PC-3
[18] = system: MDA-MB-231
[19] = system: RPMI-8226
[20] = system: Hs-578T

| SMILES | GI50 [1] | GI50 [2] | GI50 [3] | GI50 [4] | GI50 [5] | GI50 [6] | GI50 [7] | GI50 [8] [µM] | GI50 [9] | GI50 [10] | GI50 [11] | GI50 [12] | GI50 [13] | GI50 [14] | GI50 [15] | GI50 [16] | GI50 [17] | GI50 [18] | GI50 [19] | GI50 [20] |
| --- | --- | --- | --- | --- | --- | --- | --- | --- | --- | --- | --- | --- | --- | --- | --- | --- | --- | --- | --- | --- |
| O=C(O)CCC(NC(=O)c1ccc(OCc2nc3cc(C(F)(F)F)ccc3nc2-c2ccccc2)cc1)C(=O)O (stereo not given) | > 100 µM (inactive) | > 100 µM (inactive) | > 100 µM (inactive) | > 100 µM (inactive) | > 100 µM (inactive) | > 100 µM (inactive) | > 100 µM (inactive) | > 100 | > 100 µM (inactive) | > 100 µM (inactive) | > 100 µM (inactive) | > 100 µM (inactive) | > 100 µM (inactive) | > 100 µM (inactive) | > 100 µM (inactive) | > 100 µM (inactive) | > 100 µM (inactive) | > 100 µM (inactive) | – | – |
| CCOC(=O)C12CCC(=O)N1N(C)c1ncccc1N2 (stereo not given) | > 100 µM (inactive) | > 100 µM (inactive) | > 100 µM (inactive) | – | > 100 µM (inactive) | > 100 µM (inactive) | – | > 100 | > 100 µM (inactive) | > 100 µM (inactive) | 67.1 µM (inactive) | > 100 µM (inactive) | > 100 µM (inactive) | > 100 µM (inactive) | – | > 100 µM (inactive) | – | > 100 µM (inactive) | > 100 µM (inactive) | – |
| CCOC(=O)CCC(NC(=O)c1ccc(Oc2nc3ccccc3nc2C(=O)OCC)cc1)C(=O)OCC (stereo not given) | > 100 µM (inactive) | 37.2 µM (inactive) | > 100 µM (inactive) | > 100 µM (inactive) | > 100 µM (inactive) | – | – | > 100 | > 100 µM (inactive) | > 100 µM (inactive) | 21.5 µM (inactive) | > 100 µM (inactive) | 63 µM (inactive) | > 100 µM (inactive) | > 100 µM (inactive) | – | > 100 µM (inactive) | 40.4 µM (inactive) | > 100 µM (inactive) | > 100 µM (inactive) |
| Cn1nc2ccc([N+](=O)[O-])c(Cn3nnc4ccccc43)c2n1 | > 100 µM (inactive) | > 100 µM (inactive) | 90.8 µM (inactive) | > 100 µM (inactive) | > 100 µM (inactive) | > 100 µM (inactive) | > 100 µM (inactive) | > 100 | 82.8 µM (inactive) | > 100 µM (inactive) | 70.3 µM (inactive) | > 100 µM (inactive) | > 100 µM (inactive) | > 100 µM (inactive) | > 100 µM (inactive) | > 100 µM (inactive) | – | > 100 µM (inactive) | > 100 µM (inactive) | 93.1 µM (inactive) |
| CN(C)C(=O)Oc1ccc(-c2cn3cc(NC(=O)c4ccccc4)ccc3n2)cc1 | > 100 µM (inactive) | > 100 µM (inactive) | 85.7 µM (inactive) | > 100 µM (inactive) | 53.7 µM (inactive) | > 100 µM (inactive) | – | > 100 | 53 µM (inactive) | > 100 µM (inactive) | 86.1 µM (inactive) | > 100 µM (inactive) | > 100 µM (inactive) | 80.4 µM (inactive) | – | > 100 µM (inactive) | > 100 µM (inactive) | > 100 µM (inactive) | 19.1 µM (inactive) | – |
| Clc1nss/c1=N/c1nonc1-c1ccccc1 | 48.1 µM (inactive) | 30.5 µM (inactive) | 38.6 µM (inactive) | 18 µM (inactive) | 39 µM (inactive) | 29.2 µM (inactive) | 28 µM (inactive) | > 100 | 27.3 µM (inactive) | 33.3 µM (inactive) | 23.2 µM (inactive) | – | 51.3 µM (inactive) | – | 3.62 µM (inactive) | 71.6 µM (inactive) | 38.3 µM (inactive) | 14 µM (inactive) | 27.2 µM (inactive) | – |
| Cn1c(=O)c(NC(=O)C(Cl)(Cl)Cl)nc2ccccc21 | > 100 µM (inactive) | > 100 µM (inactive) | – | > 100 µM (inactive) | > 100 µM (inactive) | 81.8 µM (inactive) | > 100 µM (inactive) | > 100 | > 100 µM (inactive) | > 100 µM (inactive) | 62.5 µM (inactive) | > 100 µM (inactive) | > 100 µM (inactive) | > 100 µM (inactive) | > 100 µM (inactive) | > 100 µM (inactive) | – | – | > 100 µM (inactive) | – |
| Nc1nnc2nc(CC(=O)/C=C/c3ccccc3)c(=O)[nH]n12 | > 100 µM (inactive) | > 100 µM (inactive) | – | > 100 µM (inactive) | > 100 µM (inactive) | > 100 µM (inactive) | > 100 µM (inactive) | > 100 | > 100 µM (inactive) | > 100 µM (inactive) | > 100 µM (inactive) | > 100 µM (inactive) | > 100 µM (inactive) | > 100 µM (inactive) | > 100 µM (inactive) | > 100 µM (inactive) | – | – | > 100 µM (inactive) | – |
| CN(C)/C=N/[C@@H](C(=O)O)c1ccccc1 | > 100 µM (inactive) | > 100 µM (inactive) | > 100 µM (inactive) | > 100 µM (inactive) | > 100 µM (inactive) | – | > 100 µM (inactive) | > 100 | > 100 µM (inactive) | > 100 µM (inactive) | > 100 µM (inactive) | > 100 µM (inactive) | > 100 µM (inactive) | > 100 µM (inactive) | > 100 µM (inactive) | > 100 µM (inactive) | > 100 µM (inactive) | > 100 µM (inactive) | > 100 µM (inactive) | – |
| COC(=N)CCCl | > 100 µM (inactive) | > 100 µM (inactive) | – | > 100 µM (inactive) | > 100 µM (inactive) | > 100 µM (inactive) | > 100 µM (inactive) | > 100 | – | > 100 µM (inactive) | 83.2 µM (inactive) | > 100 µM (inactive) | > 100 µM (inactive) | > 100 µM (inactive) | > 100 µM (inactive) | – | > 100 µM (inactive) | – | > 100 µM (inactive) | – |
| COC(=O)C(C(=O)C(=O)Nc1ccccc1C#N)c1nc2ccc([N+](=O)[O-])cc2nc1O (stereo not given) | > 100 µM (inactive) | > 100 µM (inactive) | > 100 µM (inactive) | > 100 µM (inactive) | > 100 µM (inactive) | > 100 µM (inactive) | > 100 µM (inactive) | > 100 | > 100 µM (inactive) | > 100 µM (inactive) | > 100 µM (inactive) | > 100 µM (inactive) | > 100 µM (inactive) | > 100 µM (inactive) | – | – | > 100 µM (inactive) | > 100 µM (inactive) | – | > 100 µM (inactive) |
| CCOC(=O)C(NC(=O)NC(C(=O)OCC)C(=O)OCC)C(=O)OCC | > 100 µM (inactive) | > 100 µM (inactive) | 98.2 µM (inactive) | > 100 µM (inactive) | > 100 µM (inactive) | > 100 µM (inactive) | > 100 µM (inactive) | > 100 | – | > 100 µM (inactive) | – | > 100 µM (inactive) | > 100 µM (inactive) | > 100 µM (inactive) | – | – | > 100 µM (inactive) | – | > 100 µM (inactive) | > 100 µM (inactive) |
